Measurements from ChEMBL document CHEMBL1136402, “Characterization of HERG potassium channel inhibition using CoMSiA 3D QSAR and homology modeling approaches” (Bioorg Med Chem Lett, 2003).

target: Voltage-gated inwardly rectifying potassium channel KCNH2 (Homo sapiens, UniProt Q12809); assay: Inhibition of K+ channel activity in CHO cells expressing HERG Kv11.1
Sequence (Q12809 whole entry): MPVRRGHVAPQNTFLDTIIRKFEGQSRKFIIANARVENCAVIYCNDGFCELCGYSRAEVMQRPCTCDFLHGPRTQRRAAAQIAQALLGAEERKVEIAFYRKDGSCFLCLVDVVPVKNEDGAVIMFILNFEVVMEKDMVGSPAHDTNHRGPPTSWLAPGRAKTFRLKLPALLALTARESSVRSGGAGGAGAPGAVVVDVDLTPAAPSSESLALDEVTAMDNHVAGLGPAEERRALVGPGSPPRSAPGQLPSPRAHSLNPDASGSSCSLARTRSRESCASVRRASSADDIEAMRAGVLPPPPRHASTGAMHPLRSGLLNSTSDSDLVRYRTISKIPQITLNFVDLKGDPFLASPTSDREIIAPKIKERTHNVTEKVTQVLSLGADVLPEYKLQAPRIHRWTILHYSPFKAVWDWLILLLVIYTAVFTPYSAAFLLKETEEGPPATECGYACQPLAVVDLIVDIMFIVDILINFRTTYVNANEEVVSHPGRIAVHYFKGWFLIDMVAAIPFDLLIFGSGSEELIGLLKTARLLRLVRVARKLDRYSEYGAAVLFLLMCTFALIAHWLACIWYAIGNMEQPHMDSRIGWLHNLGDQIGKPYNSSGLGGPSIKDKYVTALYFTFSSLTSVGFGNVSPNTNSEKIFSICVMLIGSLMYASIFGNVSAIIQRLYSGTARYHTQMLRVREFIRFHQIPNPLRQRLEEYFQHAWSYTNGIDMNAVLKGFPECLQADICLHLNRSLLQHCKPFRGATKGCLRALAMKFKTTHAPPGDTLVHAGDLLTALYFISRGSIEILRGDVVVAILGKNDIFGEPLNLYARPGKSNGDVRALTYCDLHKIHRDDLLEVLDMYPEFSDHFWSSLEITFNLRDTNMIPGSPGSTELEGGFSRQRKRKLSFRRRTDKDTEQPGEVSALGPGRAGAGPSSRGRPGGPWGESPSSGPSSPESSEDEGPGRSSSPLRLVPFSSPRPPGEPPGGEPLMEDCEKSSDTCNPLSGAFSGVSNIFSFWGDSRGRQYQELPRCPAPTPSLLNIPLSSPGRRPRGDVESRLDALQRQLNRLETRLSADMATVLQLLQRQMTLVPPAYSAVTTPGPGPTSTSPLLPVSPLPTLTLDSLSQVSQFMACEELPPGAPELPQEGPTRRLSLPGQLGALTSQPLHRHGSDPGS

Structure (SMILES) | IC50
O=C1NCCN1CCN1CC=C(c2cn(-c3ccc(F)cc3)c3ccc(Cl)cc23)CC1 | 10 nM
O=C1NCCN1CCN1CCC(c2cn(-c3ccc(F)cc3)c3ccccc23)CC1 | 7 nM
Fc1ccc(-n2cc(C3CCNCC3)c3cc(Cl)ccc32)cc1 | 204 nM
Fc1ccc(-n2cc(C3CCN(CCN4CCN=C4S)CC3)c3ccccc32)cc1 | 6.2 nM
CC(C)(C)c1ccc2c(ccn2-c2ccc(F)cc2)c1 | > 10000 nM
CCc1cn(-c2ccc(F)cc2)c2ccc(Cl)cc12 | 3500 nM
CC(=O)c1cn(-c2ccc(F)cc2)c2ccc(Cl)cc12 | > 10000 nM
CCCc1cn(-c2ccc(F)cc2)c2ccc(Cl)cc12 | 26000 nM
CC(O)c1cn(-c2ccc(F)cc2)c2ccc(Cl)cc12 (stereo not given) | 4550 nM
CC(C)c1cn(-c2ccc(F)cc2)c2ccc(Cl)cc12 | > 10000 nM
CCC(=O)c1cn(-c2ccc(F)cc2)c2ccc(Cl)cc12 | 1950 nM
O=C1NCCN1CCN1CCC(c2cn(C3CCCCC3)c3ccc(Cl)cc23)CC1 | 137 nM
CCC(O)c1cn(-c2ccc(F)cc2)c2ccc(Cl)cc12 (stereo not given) | 2200 nM
CCC(O)(CC)c1cn(-c2ccc(F)cc2)c2ccc(Cl)cc12 | 15700 nM
O=C1NCCN1CCN1CCC(C2CN(c3ccc(F)cc3)c3ccccc32)CC1 (stereo not given) | 23.5 nM
